# Data from PubChem BioAssay (NCI).
#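 Exposure lasted 48 hours, with cells grown in 96-well plates and compounds tested at five concentrations. Here, GI50 denotes the concentration required for 50% inhibition of growth. TGI marks complete inhibition of growth.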
# Legend:
# Experiment in all cases: inhibition of tumour cell growth, NCI panel, 48 h
# HT29 colon = tested on: HT29 colon
# MDA-MB-231 breast = tested on: MDA-MB-231 breast
# HCC-2998 colon = tested on: HCC-2998 colon
# K-562 leukemia = tested on: K-562 leukemia
# KM12 colon = tested on: KM12 colon
# T-47D breast = tested on: T-47D breast
# HOP-92 NSCLC = tested on: HOP-92 NSCLC
# UACC-62 melanoma = tested on: UACC-62 melanoma
# BT-549 breast = tested on: BT-549 breast
# SN12C renal = tested on: SN12C renal
# OVCAR-8 ovarian = tested on: OVCAR-8 ovarian
# M14 melanoma = tested on: M14 melanoma
# SF-539 CNS = tested on: SF-539 CNS
# OVCAR-3 ovarian = tested on: OVCAR-3 ovarian
# NCI-H460 lung = tested on: NCI-H460 lung
# SK-MEL-28 melanoma = tested on: SK-MEL-28 melanoma
# SF-268 CNS = tested on: SF-268 CNS
# PC-3 prostate = tested on: PC-3 prostate
# RXF 393 renal = tested on: RXF 393 renal
# NCI-H226 lung = tested on: NCI-H226 lung
# RPMI-8226 leukemia = tested on: RPMI-8226 leukemia
# 786-0 renal = tested on: 786-0 renal
# NCI-H522 lung = tested on: NCI-H522 lung
# UACC-257 melanoma = tested on: UACC-257 melanoma
# ACHN renal = tested on: ACHN renal
# SK-MEL-2 melanoma = tested on: SK-MEL-2 melanoma
# MCF7 breast = tested on: MCF7 breast
# TK-10 renal = tested on: TK-10 renal
# A498 renal = tested on: A498 renal
# MDA-MB-435 = tested on: MDA-MB-435
# MALME-3M melanoma = tested on: MALME-3M melanoma
# NCI-H23 lung = tested on: NCI-H23 lung
# HCT-116 colon = tested on: HCT-116 colon
# SK-OV-3 ovarian = tested on: SK-OV-3 ovarian
# SF-295 CNS = tested on: SF-295 CNS
# DU-145 prostate = tested on: DU-145 prostate
# CCRF-CEM leukemia = tested on: CCRF-CEM leukemia
# IGROV1 ovarian = tested on: IGROV1 ovarian
# SK-MEL-5 melanoma = tested on: SK-MEL-5 melanoma
# SNB-19 CNS = tested on: SNB-19 CNS
# SW-620 colon = tested on: SW-620 colon
# LOX IMVI melanoma = tested on: LOX IMVI melanoma
# HS 578T breast = tested on: HS 578T breast
# COLO 205 colon = tested on: COLO 205 colon
# EKVX NSCLC = tested on: EKVX NSCLC
# OVCAR-5 ovarian = tested on: OVCAR-5 ovarian
# UO-31 renal = tested on: UO-31 renal
# HL-60(TB) leukemia = tested on: HL-60(TB) leukemia
# HOP-62 NSCLC = tested on: HOP-62 NSCLC
# HCT-15 colon = tested on: HCT-15 colon
# A549 NSCLC = tested on: A549 NSCLC
# NCI/ADR-RES ovarian = tested on: NCI/ADR-RES ovarian
# U251 CNS = tested on: U251 CNS
# CAKI-1 renal = tested on: CAKI-1 renal
# SNB-75 CNS = tested on: SNB-75 CNS
# MOLT-4 leukemia = tested on: MOLT-4 leukemia
# OVCAR-4 ovarian = tested on: OVCAR-4 ovarian
structure (smiles),measurement,setting,value
CCOC(=O)c1cc2c(c3ccsc13)C1(C)CCC3c4ccc(OC)cc4CCC3C1C2 (centres undefined),GI50,HT29 colon,60.3 µM
same,TGI,HT29 colon,> 100 µM
same,GI50,MDA-MB-231 breast,> 100 µM
same,TGI,MDA-MB-231 breast,> 100 µM
same,GI50,HCC-2998 colon,> 100 µM
same,TGI,HCC-2998 colon,> 100 µM
same,GI50,K-562 leukemia,> 100 µM
same,TGI,K-562 leukemia,> 100 µM
same,GI50,KM12 colon,> 100 µM
same,TGI,KM12 colon,> 100 µM
same,GI50,T-47D breast,> 100 µM
same,TGI,T-47D breast,> 100 µM
same,GI50,HOP-92 NSCLC,> 100 µM
same,TGI,HOP-92 NSCLC,> 100 µM
same,GI50,UACC-62 melanoma,> 100 µM
same,TGI,UACC-62 melanoma,> 100 µM
same,GI50,BT-549 breast,> 100 µM
same,TGI,BT-549 breast,> 100 µM
same,GI50,SN12C renal,> 100 µM
same,TGI,SN12C renal,> 100 µM
same,GI50,OVCAR-8 ovarian,> 100 µM
same,TGI,OVCAR-8 ovarian,> 100 µM
same,GI50,M14 melanoma,> 100 µM
same,TGI,M14 melanoma,> 100 µM
same,GI50,SF-539 CNS,> 100 µM
same,TGI,SF-539 CNS,> 100 µM
same,GI50,OVCAR-3 ovarian,> 100 µM
same,TGI,OVCAR-3 ovarian,> 100 µM
same,GI50,NCI-H460 lung,> 100 µM
same,TGI,NCI-H460 lung,> 100 µM
same,GI50,SK-MEL-28 melanoma,> 100 µM
same,TGI,SK-MEL-28 melanoma,> 100 µM
same,GI50,SF-268 CNS,> 100 µM
same,TGI,SF-268 CNS,> 100 µM
same,GI50,PC-3 prostate,> 100 µM
same,TGI,PC-3 prostate,> 100 µM
same,GI50,RXF 393 renal,> 100 µM
same,TGI,RXF 393 renal,> 100 µM
same,GI50,NCI-H226 lung,> 100 µM
same,TGI,NCI-H226 lung,> 100 µM
same,GI50,RPMI-8226 leukemia,> 100 µM
same,TGI,RPMI-8226 leukemia,> 100 µM
same,GI50,786-0 renal,> 100 µM
same,TGI,786-0 renal,> 100 µM
same,GI50,NCI-H522 lung,> 100 µM
same,TGI,NCI-H522 lung,> 100 µM
same,GI50,UACC-257 melanoma,> 100 µM
same,TGI,UACC-257 melanoma,> 100 µM
same,GI50,ACHN renal,> 100 µM
same,TGI,ACHN renal,> 100 µM
same,GI50,SK-MEL-2 melanoma,> 100 µM
same,TGI,SK-MEL-2 melanoma,> 100 µM
same,GI50,MCF7 breast,> 100 µM
same,TGI,MCF7 breast,> 100 µM
same,GI50,TK-10 renal,> 100 µM
same,TGI,TK-10 renal,> 100 µM
same,GI50,A498 renal,> 100 µM
same,TGI,A498 renal,> 100 µM
same,GI50,MDA-MB-435,> 100 µM
same,TGI,MDA-MB-435,> 100 µM
same,GI50,MALME-3M melanoma,> 100 µM
same,TGI,MALME-3M melanoma,> 100 µM
same,GI50,NCI-H23 lung,> 100 µM
same,TGI,NCI-H23 lung,> 100 µM
same,GI50,HCT-116 colon,> 100 µM
same,TGI,HCT-116 colon,> 100 µM
same,GI50,SK-OV-3 ovarian,36 µM
same,TGI,SK-OV-3 ovarian,> 100 µM
same,GI50,SF-295 CNS,> 100 µM
same,TGI,SF-295 CNS,> 100 µM
same,GI50,DU-145 prostate,> 100 µM
same,TGI,DU-145 prostate,> 100 µM
same,GI50,CCRF-CEM leukemia,> 100 µM
same,TGI,CCRF-CEM leukemia,> 100 µM
same,GI50,IGROV1 ovarian,> 100 µM
same,TGI,IGROV1 ovarian,> 100 µM
same,GI50,SK-MEL-5 melanoma,> 100 µM
same,TGI,SK-MEL-5 melanoma,> 100 µM
same,GI50,SNB-19 CNS,> 100 µM
same,TGI,SNB-19 CNS,> 100 µM
same,GI50,SW-620 colon,> 100 µM
same,TGI,SW-620 colon,> 100 µM
same,GI50,LOX IMVI melanoma,> 100 µM
same,TGI,LOX IMVI melanoma,> 100 µM
same,GI50,HS 578T breast,> 100 µM
same,TGI,HS 578T breast,> 100 µM
same,GI50,COLO 205 colon,> 100 µM
same,TGI,COLO 205 colon,> 100 µM
same,GI50,EKVX NSCLC,> 100 µM
same,TGI,EKVX NSCLC,> 100 µM
same,GI50,OVCAR-5 ovarian,> 100 µM
same,TGI,OVCAR-5 ovarian,> 100 µM
same,GI50,UO-31 renal,> 100 µM
same,TGI,UO-31 renal,> 100 µM
same,GI50,HL-60(TB) leukemia,> 100 µM
same,TGI,HL-60(TB) leukemia,> 100 µM
same,GI50,HOP-62 NSCLC,> 100 µM
same,TGI,HOP-62 NSCLC,> 100 µM
same,GI50,HCT-15 colon,> 100 µM
same,TGI,HCT-15 colon,> 100 µM
same,GI50,A549 NSCLC,> 100 µM
same,TGI,A549 NSCLC,> 100 µM
same,GI50,NCI/ADR-RES ovarian,> 100 µM
same,TGI,NCI/ADR-RES ovarian,> 100 µM
same,GI50,U251 CNS,> 100 µM
same,TGI,U251 CNS,> 100 µM
same,GI50,CAKI-1 renal,> 100 µM
same,TGI,CAKI-1 renal,> 100 µM
C[C@@H]1CCC[C@]2(C)O[C@H]2CC[C@@](C)(O)[C@@H]2CC3=C(CO)C(=O)O[C@H]3[C@H]1O2,TGI,HT29 colon,> 50 µM
same,TGI,MDA-MB-231 breast,> 50 µM
same,TGI,HCC-2998 colon,> 50 µM
same,TGI,K-562 leukemia,> 50 µM
same,TGI,KM12 colon,> 50 µM
same,TGI,T-47D breast,> 50 µM
same,TGI,HOP-92 NSCLC,> 50 µM
same,TGI,UACC-62 melanoma,> 50 µM
same,TGI,BT-549 breast,> 50 µM
same,TGI,SN12C renal,> 50 µM
same,TGI,OVCAR-8 ovarian,> 50 µM
same,TGI,M14 melanoma,> 50 µM
same,TGI,SF-539 CNS,> 50 µM
same,TGI,SNB-75 CNS,> 50 µM
same,TGI,OVCAR-3 ovarian,> 50 µM
same,TGI,NCI-H460 lung,> 50 µM
same,TGI,SK-MEL-28 melanoma,> 50 µM
same,TGI,SF-268 CNS,> 50 µM
same,TGI,PC-3 prostate,> 50 µM
same,TGI,RXF 393 renal,> 50 µM
same,TGI,NCI-H226 lung,> 50 µM
same,TGI,RPMI-8226 leukemia,> 50 µM
same,TGI,786-0 renal,> 50 µM
same,TGI,NCI-H522 lung,> 50 µM
same,TGI,UACC-257 melanoma,> 50 µM
same,TGI,ACHN renal,> 50 µM
same,TGI,MOLT-4 leukemia,> 50 µM
same,TGI,SK-MEL-2 melanoma,> 50 µM
same,TGI,MCF7 breast,> 50 µM
same,TGI,OVCAR-4 ovarian,> 50 µM
same,TGI,TK-10 renal,> 50 µM
same,TGI,A498 renal,> 50 µM
same,TGI,MDA-MB-435,> 50 µM
same,TGI,NCI-H23 lung,> 50 µM
same,TGI,HCT-116 colon,> 50 µM
same,TGI,SK-OV-3 ovarian,> 50 µM
same,TGI,SF-295 CNS,> 50 µM
same,TGI,DU-145 prostate,> 50 µM
same,TGI,CCRF-CEM leukemia,> 50 µM
same,TGI,IGROV1 ovarian,> 50 µM
same,TGI,SK-MEL-5 melanoma,> 50 µM
same,TGI,SNB-19 CNS,> 50 µM
same,TGI,SW-620 colon,> 50 µM
same,TGI,LOX IMVI melanoma,> 50 µM
same,TGI,HS 578T breast,> 50 µM
same,TGI,COLO 205 colon,> 50 µM
same,TGI,EKVX NSCLC,> 50 µM
same,TGI,OVCAR-5 ovarian,> 50 µM
same,TGI,UO-31 renal,> 50 µM
same,TGI,HL-60(TB) leukemia,> 5 µM
same,TGI,HOP-62 NSCLC,> 50 µM
same,TGI,HCT-15 colon,> 50 µM
same,TGI,A549 NSCLC,> 50 µM
same,TGI,NCI/ADR-RES ovarian,> 50 µM
same,TGI,U251 CNS,> 50 µM
same,TGI,CAKI-1 renal,> 50 µM
